Structures can show the parent of a compound that is named as a salt. Each block holds one compound with its values, some of them ahead of it.
How the values were obtained:
[1] = Example 1: weight loss in subjects given capsules, no change of diet or exercise; assay type: in vivo, human; parameters: average weight loss: unit not given here; conditions: 6 mg/kg per day calculated as octopamine base; for average weight loss: capsules, divided dosages
Protocol: Octopamine base, octopamine HCl, octopamine malate, and octopamine ethylcarbonate were prepared and given as capsules in divided dosages at 6 mg/kg per day calculated as octopamine base.

[2] = Stability of octopamine forms exposed to the atmosphere (in-house results); assay type: physicochemical; conditions: normal atmospheric conditions; according to our calculations
Excerpt: First, we have discovered that octopamine in the base form is very unstable and oxidizes rapidly when readily exposed to the atmosphere.
For instance, although the half-life of octopamine base is roughly 6 months, the half-life for octopamine salts of this invention such as octopamine HCl is at least 5 years according to our calculations. To be used commercially for metabolic enhancement, it is of extreme importance that the octopamine form used has a shelf life long enough so that the octopamine remains filly efficacious for at least one year and preferably two years.

[3] = Example 2: change in percent bodyfat and lean body mass, perceived energy and mental outlook in subjects; assay type: in vivo, human; conditions: for Change Percent Bodyfat / Change Percent Lean Body Mass: 6 mg/kg per day calculated as octopamine base; for Perceived Energy / Perceived Mental Outlook and Focus: subjective, scale of 1-10, 6 mg/kg per day
Protocol: Octopamine HCl was prepared and given as capsules in divided dosages at 6 mg/kg per day calculated as octopamine base. […] Subjective results are also shown regarding perceived energy and mental outlook and focus (scale of 1-10): […]

[4] = Metabolic potency, bioavailability and tolerability of octopamine salts versus base in users; assay type: in vivo, human
Excerpt: Finally, we have discovered that the base form of octopamine has significant bioavailability problems. […] There is thus great need for an improvement to this technology which allows octopamine to be a commercially viable option for metabolic enhancement.
We have found the octopamine salts of this invention are up to four times more efficient at affecting specific metabolic parameters than octopamine base.
The octopamine salts of this invention can be commercially used in various ways as metabolic enhancers. For instance, we have found usefulness with these compounds as weight loss agents. […] Even in high dosages, the user feels no noticeable negative effect on his general feeling or overall state of well-being. Furthermore, these octopamine salts specifically enhance the loss of adipose tissue while preserving lean body mass such as muscle tissue. A significant problem for anyone trying to lose unwanted adipose tissue is the concurrent loss of lean body mass. Lean body mass includes tissues such as muscle, kidney, liver, heart and bone. For a person to feel healthy and strong, these tissues must also be healthy and strong. […]
Human dosaging for the octopamine salts of this invention is most preferable in the range of 5-15 mg/kg of bodyweight calculated as base octopamine. […]

Compound: Octopamine ethylcarbonate
- average weight loss ([1]; Week 1): 2
- average weight loss ([1]; Week 4): 6
- average weight loss ([1]; Week 8): 10

Compound: Octopamine malate
- average weight loss ([1]; Week 1): 1
- average weight loss ([1]; Week 4): 5
- average weight loss ([1]; Week 8): 10

- half-life [2]: ≥ 1830 days
Compound: NCC(O)c1ccc(O)cc1 (stereo not drawn) [Octopamine HCl]
- average weight loss ([1]; Week 1, HCl, 6 mg/kg/day): 2
- average weight loss ([1]; Week 4, HCl, 6 mg/kg/day): 6
- average weight loss ([1]; Week 8, HCl, 6 mg/kg/day): 9
- Change Percent Bodyfat ([3]; Week 1): −.5%
- Change Percent Lean Body Mass ([3]; Week 1): 0%
- Perceived Energy ([3]; Week 1): 6
- Perceived Mental Outlook and Focus ([3]; Week 1): 7
- Change Percent Bodyfat ([3]; Week 4): −2%
- Change Percent Lean Body Mass ([3]; Week 4): +.3%
- Perceived Energy ([3]; Week 4): 8
- Perceived Mental Outlook and Focus ([3]; Week 4): 7
- Change Percent Bodyfat ([3]; Week 8): −4%
- Change Percent Lean Body Mass ([3]; Week 8): +1%
- Perceived Energy ([3]; Week 8): 8
- Perceived Mental Outlook and Focus ([3]; Week 8): 9

Compound: NCC(O)c1ccc(O)cc1 (stereo not drawn) [Octopamine base, Octopamine]
- minimum effective dosage relative to the octopamine salts of the invention [4]: nearly four times
- weight loss (result in words) ([1]; up to Week 8): neither the octopamine base nor the control resulted in appreciable or significant weight loss
- average weight loss ([1]; Week 1, 6 mg/kg/day): 0
- average weight loss ([1]; Week 4, 6 mg/kg/day): 1
- average weight loss ([1]; Week 8, 6 mg/kg/day): 2
